Measurements: US11377418B2, “Compounds and methods for treating influenza” (Macau University of Science and Technology, priority 2020, dated 2022)
Entries after “also recorded” stand apart in the source; their conditions may differ. Read-outs that look alike come from different tables or passages of the source.

Experiments:
[1] = test system: influenza A H1N1 (A/PR/8/34 virus); experiment: cytopathic effect (CPE) inhibition assay in MDCK cells; assay type: cell-based
NF-κB activation = experiment: NF-κB-driven luciferase reporter assay in TNF-α-induced HEK293 cells; assay type: cell-based, Human; conditions: luciferase activity, 20 ng/mL TNF-α, compound 100, 50, 25 or 12.5 μM, 24 h, FIGS. 1 to 4
influenza virus = experiment: NF-κB signalling inhibition, effect on influenza virus titers (in vitro and in vivo)

CC(=O)OC[C@H](Cc1ccc(F)cc1)NC(=O)[C@H](Cc1ccccc1)NC(=O)c1ccccc1 [Compound 4, (S)-2-((S)-2-benzamido-3-phenylpropanamido)-3-(4-fluorophenyl)propyl acetate]
IC50 ([1]; Influenza A virus, MDCK, 48 h): 29.6 µM

O=C(N[C@@H](Cc1ccccc1)C(=O)N[C@H](CO)Cc1ccccc1)c1ccc(F)cc1 [Compound 11, 4-fluoro-N—((S)-1-(((S)-1-hydroxy-3-phenylpropan-2-yl)amino)-1-oxo-3-phenylpropan-2-yl)benzamide]
IC50 ([1]; Influenza A virus, MDCK, 48 h): 47 µM

CC(=O)OC[C@H](Cc1ccccc1)NC(=O)[C@H](Cc1ccccc1)NC(=O)c1ccc(F)cc1 [Compound 3, (S)-2-((S)-2-(4-fluorobenzamido)-3-phenylpropanamido)-3-phenylpropyl acetate]
IC50 ([1]; Influenza A virus, MDCK, 48 h): 42.4 µM

O=C(N[C@@H](Cc1ccc(F)cc1)C(=O)N[C@H](CO)Cc1ccccc1)c1ccc(F)cc1 [Compound 13]
IC50 [1]: 10.5 µM
IC50 ([1]; Influenza A virus, MDCK, 48 h): < 14.3 µM

CC(=O)OC[C@H](Cc1ccccc1)NC(=O)[C@H](Cc1ccccc1)NC(=O)c1ccccc1 [Compound 1, (S)-2-((S)-2-benzamido-3-phenylpropanamido)-3-phenylpropyl acetate, reference compound]
IC50 ([1]; Influenza A virus, MDCK, 48 h): 74.3 µM

O=C(N[C@@H](Cc1ccccc1)C(=O)N[C@H](CO)Cc1ccc(F)cc1)c1ccccc1 [Compound 12, N—((S)-1-(((S)-1-(4-fluorophenyl)-3-hydroxypropan-2-yl)amino)-1-oxo-3-phenylpropan-2-yl)benzamide]
IC50 ([1]; Influenza A virus, MDCK, 48 h): 17.4 µM

O=C(N[C@@H](Cc1ccc(F)cc1)C(=O)N[C@H](CO)Cc1ccc(F)cc1)c1ccccc1 [Compound 14, N—((S)-3-(4-fluorophenyl)-1-(((S)-1-(4-fluorophenyl)-3-hydroxypropan-2-yl)amino)-1-oxopropan-2-yl)benzamide]
IC50 ([1]; Influenza A virus, MDCK, 48 h): 19.7 µM
inhibition towards NF-κB activation (in words) (NF-κB activation): strongest inhibition effect; also recorded: strong inhibitory effect

CC(=O)OC[C@H](Cc1ccccc1)NC(=O)[C@H](Cc1ccc(F)cc1)NC(=O)c1ccc(F)cc1 [Compound 5, (S)-2-((S)-2-(4-fluorobenzamido)-3-(4-fluorophenyl)propanamido)-3-phenylpropyl acetate]
IC50 ([1]; Influenza A virus, MDCK, 48 h): 37.9 µM

O=C(N[C@@H](Cc1ccccc1)C(=O)N[C@H](CO)Cc1ccccc1)c1ccccc1 [Compound 9, N—((S)-1-(((S)-1-hydroxy-3-phenylpropan-2-yl)amino)-1-oxo-3-phenylpropan-2-yl)benzamide, reference compound]
IC50 ([1]; Influenza A virus, MDCK, 48 h): 34 µM

CC(=O)OC[C@H](Cc1ccc(F)cc1)NC(=O)[C@H](Cc1ccc(F)cc1)NC(=O)c1ccccc1 [Compound 6, (S)-2-((S)-2-benzamido-3-(4-fluorophenyl)propanamido)-3-(4-fluorophenyl)propyl acetate]
IC50 ([1]; Influenza A virus, MDCK, 48 h): 19.2 µM
inhibition towards NF-κB activation (in words) (NF-κB activation): strongest inhibition effect; also recorded: strong inhibitory effect

CC(C)(C)c1ccc(S(=O)(=O)/C=C/C#N)cc1 [Compound 11-7085]
influenza virus titers (in words) (influenza virus): dramatic reduction of influenza virus titers

CC(=O)OC[C@H](Cc1ccc(F)cc1)NC(=O)[C@H](Cc1ccccc1)NC(=O)c1ccc(F)cc1 [Compound 7, (S)-2-((S)-2-(4-fluorobenzamido)-3-phenylpropanamido)-3-(4-fluorophenyl)propyl acetate]
IC50 [1]: 13.5 µM
IC50 ([1]; Influenza A virus, MDCK, 48 h): < 14.3 µM

O=C(N[C@@H](Cc1ccc(F)cc1)C(=O)N[C@H](CO)Cc1ccccc1)c1ccccc1 [Compound 10, N—((S)-3-(4-fluorophenyl)-1-(((S)-1-hydroxy-3-phenylpropan-2-yl)amino)-1-oxopropan-2-yl)benzamide]
IC50 [1]: 14.3 µM
anti-influenza virus effect (in words) ([1]; CPE inhibition, MDCK cells, A/PR/8/34 (H1N1)): potent inhibitory effect
IC50 ([1]; Influenza A virus, MDCK, 48 h): < 14.3 µM
inhibition towards NF-κB activation (in words) (NF-κB activation): potent inhibitory effect; also recorded: strong inhibitory effect; also recorded: excellent inhibitory effects

O=C(N[C@@H](Cc1ccccc1)C(=O)N[C@H](CO)Cc1ccc(F)cc1)c1ccc(F)cc1 [Compound 15, 4-fluoro-N—((S)-1-(((S)-1-(4-fluorophenyl)-3-hydroxypropan-2-yl)amino)-1-oxo-3-phenylpropan-2-yl)benzamide]
IC50 ([1]; Influenza A virus, MDCK, 48 h): 38.7 µM

CC(=O)Oc1ccccc1C(=O)O [acetylsalicyclic acid (ASA), acetylsalicyclic acid]
influenza virus titers (in words) (influenza virus): dramatic reduction of influenza virus titers
